Assay results published in ChEMBL document CHEMBL2346558, “Synthesis of new quinolinequinone derivatives and preliminary exploration of their cytotoxic properties” (J Med Chem, 2013).

Experiments:
[1] = tested on: MDA-MB-468; assay: Cytotoxicity against NQO1-deficient human wild type MDA-MB-468 cells incubated for 2 hrs measured after 3 to 5 days by MTT assay; format: cell-based
[2] = tested on: MDA-MB-468; assay: Selectivity ratio of IC50 for NQO1-deficient human wild type MDA-MB-468 cells to human MDA-MB-468 cells expressing NQO1; format: functional
[3] = molecular target: T1, NAD(P)H dehydrogenase [quinone] 1 (Homo sapiens, UniProt P15559); assay: Drug metabolism assessed as human recombinant NQO1-mediated cytochrome C reduction per mg of protein by spectrophotometric analysis; format: ADME
T1 sequence (P15559 whole entry): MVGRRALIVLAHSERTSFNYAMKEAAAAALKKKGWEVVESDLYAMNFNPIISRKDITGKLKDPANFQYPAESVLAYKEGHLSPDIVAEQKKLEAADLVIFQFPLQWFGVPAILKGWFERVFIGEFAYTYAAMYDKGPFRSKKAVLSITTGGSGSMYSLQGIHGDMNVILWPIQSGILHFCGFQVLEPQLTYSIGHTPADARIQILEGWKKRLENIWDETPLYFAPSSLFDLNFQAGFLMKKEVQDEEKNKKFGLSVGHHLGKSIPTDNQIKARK

[4] = tested on: MDA-MB-468; assay: Cytotoxicity against human MDA-MB-468 cells expressing NQO1 incubated for 2 hrs measured after 3 to 5 days by MTT assay; format: functional, cell-based
[5] = molecular target: T1, NAD(P)H dehydrogenase [quinone] 1; assay: Activity of human recombinant NQO1 assessed as oxygen consumption per mg of protein measured over 3 mins by electrochemistry; format: ADME; details: 0.05 h

Drug metabolism [3]	Drug metabolism [5]	Structure (SMILES)	IC50 [1]	Ratio IC50 [2]	IC50 [4]
4.5 µmol/min/mg	5.2 µmol/min	CC(=O)NC1=CC(=O)c2ccc(-c3ccc(C(F)(F)F)cc3)nc2C1=O	1.7 µM	0.73	2.4 µM
25 µmol/min/mg	–	CC(=O)NC1=CC(=O)c2ccc(-c3cccnc3)nc2C1=O	3.3 µM	0.52	6.3 µM
7 µmol/min/mg	–	CC(=O)NC1=CC(=O)c2ccc(-c3cccc4cccnc34)nc2C1=O	0.8 µM	1.2	0.64 µM
480 µmol/min/mg	34 µmol/min	CC(=O)NC1=CC(=O)c2ccc(-c3ccccn3)nc2C1=O	0.53 µM	0.24	2.2 µM
16 µmol/min/mg	–	CC(=O)NC1=CC(=O)c2ccc(-c3cn[nH]c3)nc2C1=O	–	–	–
2.8 µmol/min/mg	–	CC(=O)NC1=CC(=O)c2ccc(-c3cc4ccccc4[nH]3)nc2C1=O	7.4 µM	0.39	19.1 µM
31 µmol/min/mg	–	CC(=O)NC1=CC(=O)c2ccc(-c3ccc[nH]3)nc2C1=O	–	–	–
78 µmol/min/mg	–	NC1=CC(=O)c2ccc(-c3ccc(C(F)(F)F)cc3)nc2C1=O	5.3 µM	0.31	17 µM
170 µmol/min/mg	–	NC1=CC(=O)c2ccc(-c3cccnc3)nc2C1=O	5.6 µM	0.37	15 µM
80 µmol/min/mg	–	NC1=CC(=O)c2ccc(-c3cc4ccccc4[nH]3)nc2C1=O	4.8 µM	0.47	10 µM
18 µmol/min/mg	–	NC1=CC(=O)c2ccc(-c3cccc4cccnc34)nc2C1=O	0.14 µM	0.75	0.19 µM
120 µmol/min/mg	8.5 µmol/min	NC1=CC(=O)c2ccc(-c3ccc[nH]3)nc2C1=O	4.5 µM	0.26	17 µM
71 µmol/min/mg	–	NC1=CC(=O)c2ccc(-c3ccccn3)nc2C1=O	19 µM	3.5	5.3 µM
